Common to all, as to assay type: biochemical
The subject of assay [1] is shunt pathway. The experiment in a line: Test Code 036 (C-Shunt inhibitor), lysis of fragile human erythrocytes in autologous serum, cobra venom factor. The conditions noted are these: serial dilution assay, twofold dilutions; higher well number indicates higher activity; N = Negative. The text has this: (§1) An active inhibitor protects C2 from C1 and C4; (ii) Test Code 035 (C3-C9 inhibitor)--This test determines the ability of the late components of human complement (C3-C9) to lyse EAC 142 in the presence of appropriate dilutions of the test compound. An active inhibitor protects EAC 142 from lysis by human C3-C9; (iii) Test Code 036 (C-Shunt inhibitor)--In this test human erythrocytes rendered fragile are lysed in autologous serum via the shunt pathway activated by cobra venom factor in the presence of appropriate dilutions of the test compound. Inhibition of the shunt pathway results in failure of lysis; (iv) Forssman Vasculitis Test--Here, the well known complement dependent lesion, Forssman Vasculitis, is produced in guinea pigs by intradermal injection of rabbit anti-Forssman antiserum. The lesion is measured in terms of diameter, edema and hemorrhage and the extent to which a combined index of these is inhibited by prior intraperitoneal injection of the test compound at 200 mg/kg is then reported, unless otherwise stated; (v) Forssman Shock Test--Lethal shock is produced in guinea pigs by an i.v. injection of anti-Forssman antiserum and the harmonic mean death time of treated guinea pigs is compared with that of simultaneous controls; (vi) Complement Level Reduction Test--In this test, the above dosed guinea pigs, or others, are bled for serum and the complement level is determined in undiluted serum by the capillary tube method of U.S. Pat. No. 3,876,376 and compared to undosed control guinea pigs; and (vii) Cap 50 Test--Here, appropriate amounts of the test compound are added to a pool of guinea pig serum in vitro, after which the undiluted serum capillary tube assay referred to above is run. The concentration of compound inhibiting 50% is reported.

Assay [2] deals with late components of human complement (C3-C9). Kind of assay: Test Code 035 (C3-C9 inhibitor), lysis of EAC 142. To be noted: serial dilution assay, twofold dilutions; higher well number indicates higher activity; N = Negative.
From the text: as §1

In assay [3] the target is activated human C1 (Homo sapiens, UniProt P09871). Kind of assay: Test Code 026 (C1 inhibitor). The conditions noted are these: serial dilution assay, twofold dilutions; higher well number indicates higher activity.
From the text: as §1

Counter-ions that a name gives are not always drawn.

Regarding `[N-]=[N+]=NC[C@H]1O[C@@H]2O[C@H]3[C@H](OS(=O)(=O)O)[C@@H](OS(=O)(=O)O)[C@@H](O[C@H]4[C@H](OS(=O)(=O)O)[C@@H](OS(=O)(=O)O)[C@@H](O[C@H]5[C@H](OS(=O)(=O)O)[C@@H](OS(=O)(=O)O)[C@@H](O[C@H]6[C@H](OS(=O)(=O)O)[C@@H](OS(=O)(=O)O)[C@@H](O[C@H]7[C@H](OS(=O)(=O)O)[C@@H](OS(=O)(=O)O)[C@@H](O[C@H]8[C@H](OS(=O)(=O)O)[C@@H](OS(=O)(=O)O)[C@@H](O[C@H]1[C@H](OS(=O)(=O)O)[C@H]2OS(=O)(=O)O)O[C@@H]8CN=[N+]=[N-])O[C@@H]7CN=[N+]=[N-])O[C@@H]6CN=[N+]=[N-])O[C@@H]5CN=[N+]=[N-])O[C@@H]4CN=[N+]=[N-])O[C@@H]3CN=[N+]=[N-]` [β-Cyclo[6-azido-6-deoxy]dextrin poly(H-sulfate)poly-sodium s] [6,6',6",6'",6"",6'"",6"""-Heptaazido-6,6',6",6'",6"",6'"",6"""-heptadeoxy-β-cyclodextrin, tetradecakis(H-sulfate), tetradecasoium salt], the “036 Activity in wells” value in assay [1] amounted to 4 wells. Moreover, in assay [2], the “035 Activity in wells” value is listed as 2 wells. Further, the “026 Activity in wells” value in assay [3] is listed as 6 wells.
Taken in the same sequence, the figures for `N#CSC[C@H]1O[C@@H]2O[C@H]3[C@H](OS(=O)(=O)O)[C@@H](OS(=O)(=O)O)[C@@H](O[C@H]4[C@H](OS(=O)(=O)O)[C@@H](OS(=O)(=O)O)[C@@H](O[C@H]5[C@H](OS(=O)(=O)O)[C@@H](OS(=O)(=O)O)[C@@H](O[C@H]6[C@H](OS(=O)(=O)O)[C@@H](OS(=O)(=O)O)[C@@H](O[C@H]7[C@H](OS(=O)(=O)O)[C@@H](OS(=O)(=O)O)[C@@H](O[C@H]8[C@H](OS(=O)(=O)O)[C@@H](OS(=O)(=O)O)[C@@H](O[C@H]1[C@H](OS(=O)(=O)O)[C@H]2OS(=O)(=O)O)O[C@@H]8CSC#N)O[C@@H]7CSC#N)O[C@@H]6CSC#N)O[C@@H]5CSC#N)O[C@@H]4CSC#N)O[C@@H]3CSC#N` [β-Cyclo[6-deoxy-6-thiocyanato]dextrin poly(H-sulfate)poly-so] [6,6',6",6'",6"",6'"",6"""-Heptadeoxy-6,6',6",6'",6"",6'"",6"""-heptathiocyanato-β-cyclodextrin, tetradecakis(H-sulfate), tetradecasodium salt] were 4 wells, 2 wells and 7 wells.
The like results for `O=S(=O)(O)O[C@@H]1[C@@H](OS(=O)(=O)O)[C@H]2O[C@H]3[C@H](OS(=O)(=O)O)[C@@H](OS(=O)(=O)O)[C@@H](O[C@H]4[C@H](OS(=O)(=O)O)[C@@H](OS(=O)(=O)O)[C@@H](O[C@H]5[C@H](OS(=O)(=O)O)[C@@H](OS(=O)(=O)O)[C@@H](O[C@H]6[C@H](OS(=O)(=O)O)[C@@H](OS(=O)(=O)O)[C@@H](O[C@H]7[C@H](OS(=O)(=O)O)[C@@H](OS(=O)(=O)O)[C@@H](O[C@H]8[C@H](OS(=O)(=O)O)[C@@H](OS(=O)(=O)O)[C@@H](O[C@@H]1[C@@H](CBr)O2)O[C@@H]8CBr)O[C@@H]7CBr)O[C@@H]6CBr)O[C@@H]5CBr)O[C@@H]4CBr)O[C@@H]3CBr` [β-Cyclo[6-bromo-6-dexoy]dextrin poly(H-sulfate)poly-trimethy] [6,6',6",6'",6"",6'""-Heptabromo-6,6',6",6'",6"",6'"",6"""-heptadeoxy-β-cyclodextrin tetradecakis(H-sulfate), tatradecasalt with trimethylamine] were, in that order, 4 wells, 3 wells and 6 wells.
Taken in the same sequence, the figures for `O=S(=O)(O)O[C@@H]1[C@@H](OS(=O)(=O)O)[C@H]2O[C@H]3[C@H](OS(=O)(=O)O)[C@@H](OS(=O)(=O)O)[C@@H](O[C@H]4[C@H](OS(=O)(=O)O)[C@@H](OS(=O)(=O)O)[C@@H](O[C@H]5[C@H](OS(=O)(=O)O)[C@@H](OS(=O)(=O)O)[C@@H](O[C@H]6[C@H](OS(=O)(=O)O)[C@@H](OS(=O)(=O)O)[C@@H](O[C@H]7[C@H](OS(=O)(=O)O)[C@@H](OS(=O)(=O)O)[C@@H](O[C@@H]1[C@@H](CBr)O2)O[C@@H]7CBr)O[C@@H]6CBr)O[C@@H]5CBr)O[C@@H]4CBr)O[C@@H]3CBr` [α-Cyclo[6-bromo-6-deoxy]dextrin poly (H-sulfate)poly-sodium ] [6,6',6",6'",6"",6'""-Hexabromo-6,6',6",6'",6"",6'""-hexadeoxy-α-cyclodextrin dodecakis(H-sulfate), dodecasodium salt] were 4 wells, 5 wells and 6 wells.
Consider `O=S(=O)(O)O[C@@H]1[C@@H](OS(=O)(=O)O)[C@H]2O[C@H]3[C@H](OS(=O)(=O)O)[C@@H](OS(=O)(=O)O)[C@@H](O[C@H]4[C@H](OS(=O)(=O)O)[C@@H](OS(=O)(=O)O)[C@@H](O[C@H]5[C@H](OS(=O)(=O)O)[C@@H](OS(=O)(=O)O)[C@@H](O[C@H]6[C@H](OS(=O)(=O)O)[C@@H](OS(=O)(=O)O)[C@@H](O[C@H]7[C@H](OS(=O)(=O)O)[C@@H](OS(=O)(=O)O)[C@@H](O[C@@H]1[C@@H](CBr)O2)O[C@@H]7CBr)O[C@@H]6CBr)O[C@@H]5CBr)O[C@@H]4CBr)O[C@@H]3CBr` [α-Cyclo[6-bromo-6-deoxy]dextrin poly(H-sulfate)poly-trimethy] [α-Cyclo[6-bromo-6-deoxy]dextrin poly(H-sulfate)poly-trimethylamine salt], for which, in assay [1], the “036 Activity in wells” value was “N”. Moreover, the “035 Activity in wells” value in assay [2] is 2 wells. In addition, in assay [3], the “026 Activity in wells” value turned out to be 2 wells.
`[N-]=[N+]=NC[C@H]1O[C@@H]2O[C@H]3[C@H](OS(=O)(=O)O)[C@@H](OS(=O)(=O)O)[C@@H](O[C@H]4[C@H](OS(=O)(=O)O)[C@@H](OS(=O)(=O)O)[C@@H](O[C@H]5[C@H](OS(=O)(=O)O)[C@@H](OS(=O)(=O)O)[C@@H](O[C@H]6[C@H](OS(=O)(=O)O)[C@@H](OS(=O)(=O)O)[C@@H](O[C@H]7[C@H](OS(=O)(=O)O)[C@@H](OS(=O)(=O)O)[C@@H](O[C@H]8[C@H](OS(=O)(=O)O)[C@@H](OS(=O)(=O)O)[C@@H](O[C@H]1[C@H](OS(=O)(=O)O)[C@H]2OS(=O)(=O)O)O[C@@H]8CN=[N+]=[N-])O[C@@H]7CN=[N+]=[N-])O[C@@H]6CN=[N+]=[N-])O[C@@H]5CN=[N+]=[N-])O[C@@H]4CN=[N+]=[N-])O[C@@H]3CN=[N+]=[N-]` [β-Cyclo[6-azido-6-deoxy]dextrin poly(H-sulfate)poly-trimethy] [6,6',6",6'",6"",6'"",6"""-Heptaazido-6,6',6",6'",6"",6'"",6"""-heptadeoxy-β-cyclodextrin, tetradecakis(H-sulfate), tetradecasalt with trimethylamine]: in assay [1], the “036 Activity in wells” value is recorded as “N”. The “035 Activity in wells” value in assay [2] is “N”. The “026 Activity in wells” value in assay [3] is 2 wells.
For the molecule `C[C@H]1O[C@@H]2O[C@H]3[C@H](OS(=O)(=O)O)[C@@H](OS(=O)(=O)O)[C@@H](O[C@H]4[C@H](OS(=O)(=O)O)[C@@H](OS(=O)(=O)O)[C@@H](O[C@H]5[C@H](OS(=O)(=O)O)[C@@H](OS(=O)(=O)O)[C@@H](O[C@H]6[C@H](OS(=O)(=O)O)[C@@H](OS(=O)(=O)O)[C@@H](O[C@H]7[C@H](OS(=O)(=O)O)[C@@H](OS(=O)(=O)O)[C@@H](O[C@H]8[C@H](OS(=O)(=O)O)[C@@H](OS(=O)(=O)O)[C@@H](O[C@H]1[C@H](OS(=O)(=O)O)[C@H]2OS(=O)(=O)O)O[C@@H]8C)O[C@@H]7C)O[C@@H]6C)O[C@@H]5C)O[C@@H]4C)O[C@@H]3C` [β-Cyclo[6-deoxy]dextrin poly(H-sulfate)poly-trimethylamine s] [6,6',6",6'",6"",6'"",6"""-Heptadeoxy-β-cyclodextrin, tetradecakis(H-sulfate), tetradecasalt with trimethylamine], the “036 Activity in wells” value in assay [1] worked out at 4 wells. In assay [2], the “035 Activity in wells” value is given as 2 wells. For the same molecule, the “026 Activity in wells” value in assay [3] is recorded as 7 wells.
Taken in the same sequence, the figures for `[N-]=[N+]=NC[C@H]1O[C@@H]2O[C@H]3[C@H](OS(=O)(=O)O)[C@@H](OS(=O)(=O)O)[C@@H](O[C@H]4[C@H](OS(=O)(=O)O)[C@@H](OS(=O)(=O)O)[C@@H](O[C@H]5[C@H](OS(=O)(=O)O)[C@@H](OS(=O)(=O)O)[C@@H](O[C@H]6[C@H](OS(=O)(=O)O)[C@@H](OS(=O)(=O)O)[C@@H](O[C@H]7[C@H](OS(=O)(=O)O)[C@@H](OS(=O)(=O)O)[C@@H](O[C@H]1[C@H](OS(=O)(=O)O)[C@H]2OS(=O)(=O)O)O[C@@H]7CN=[N+]=[N-])O[C@@H]6CN=[N+]=[N-])O[C@@H]5CN=[N+]=[N-])O[C@@H]4CN=[N+]=[N-])O[C@@H]3CN=[N+]=[N-]` [α-Cyclo[6-azido-6-deoxy]dextrin poly(H-sulfate)poly-trimethy] [6,6',6",6'",6"",6'""-Hexaazido-6,6',6",6'",6"",6'""-hexadeoxy-α-cyclodextrin, dodecakis(H-sulfate), dodecasalt with trimethylamine] were “N”, “N” and 2 wells.

These data come from US4258180A, “C6-Modified cyclodextrin sulfate salts as complement inhibitors” (American Cyanamid Company, priority 1979, dated 1981).
